Data published in article PMC11725581, “Developing novel Lin28 inhibitors by computer aided drug design” (Cell Death Discovery, 2025).

Key:
VOA1066 cells = test: Cell proliferation (Incucyte), VOA1066; format: cell-based
Description: (§1) To further evaluate whether the suppressive effects of Ln268 are specific to Lin28-positive cancer cells, we compared cell growth rates of DuNE (Lin28b-positive line) and Du145 (Lin28b-negative line), both of which are Lin28a-negative. DuNE has the same genomic background with Du145 except for the transduction of the SRRM4 gene. […] Furthermore, Ln268 had no impact on the cell growth of DuNE(KO) cells, in which the Lin28b gene was knocked out by CRISPR (Fig. 5C). […] We also tested several ovarian and endometrial cancer cell lines with different Lin28a and Lin28b expression profiles (Fig. 5E).

ES-2 cells = test: Cell proliferation (Incucyte), ES-2; format: cell-based; settings: Lin28a/Lin28b-negative
Description: as §1

Du145 spheroids = test: Du145 spheroid growth; format: cell-based; settings: 0-192 h
Description: as §1
For a spheroid generation, 1000 cells/well were seeded in 96-well ULA round-bottomed plates (Corning, Amsterdam) using a multichannel pipette. 3D multicellular spheroids were spontaneously generated after 24 h culture. Plates were incubated for 6 days at 37 °C, 5% CO2, and 95% humidity. DuNE and Du145 cells were cultured in DMEM with 10% FBS. Fully automated image analysis of tumor spheroids was carried out with the Incucyte® S3 Live-Cell Analysis System. The size and shape of multicellular spheroids were analyzed by using the Incucyte® Spheroid Analysis Software Module.

[1] = test system: Lin28b-mediated SG formation in DuNE cells; test: Stress granule (SG) formation induced by ARS, confocal microscopy; format: cell-based
Description: To assess whether Lin28 inhibitors can inhibit SG formation in cancer cells, we induced SGs in DuNE cells using ARS. These cells were co-treated with either vehicle, C1632, Ln15, or Ln268 (Fig. 6F). As a positive control, RNase was also included since it is known to prevent Lin28-mediated SG formation. Under vehicle treatment condition, Lin28b was primarily localized within SGs; however, in the presence of Lin28 inhibitors, its subcellular distribution became more diffuse, extending beyond SGs. SG formation involves a dynamic process in which initial smaller granules coalesce to form larger, mature SGs through phase separation (Fig. 6F).
Cells were fixed with 4% paraformaldehyde, treated in 0.25% Triton X-100 for 15 mins, and mounted with DAPI staining mount (Vector Labs; Burlingame, USA). Cell images were captured by confocal microscopy at 63X magnification (Zeiss; Germany).

DuNE cells = test: Cell cycle analysis by FACS, DuNE cells; format: cell-based; settings: 0-20 μM, 144 h
Description: To further compare the potency of Ln268 with C1632 and Ln15 in suppressing DuNE cell growth, we also measured cell growth rates under […] conditions (Fig. 4E). […] In addition, we used FACS assays to confirm that Ln268-mediated cell growth inhibition was due to its effects on blocking cancer cell cycling from the G1 phase towards the S and M phases (Fig. 4F). […] In summary, we confirmed that Ln268 is a potent Lin28 inhibitor that blocks the CSC phenotype of cancer cells, suppresses formation of 3D colonies, and inhibits cancer cell proliferation.

Lin28b ZKD = biological target: T1, Lin28b ZKD (Homo sapiens, UniProt Q6ZN17); test: Fluorescence polarization (FP) assay, Lin28b ZKD:pre-let-7d interaction; format: binding; settings: FP / EMSA
T1 sequence (Q6ZN17 127-166 limits assumed): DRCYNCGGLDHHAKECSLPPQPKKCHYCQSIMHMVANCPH
Description: We conducted two biochemical assays, FP and EMSA, to validate the predicted compounds. To optimize the FP assays, we performed a series of titrations using: (1) FAM-labeled pre-let-7d RNA probe, (2) Lin28b ZKD protein, and (3) non-labeled pre-let-7 probe as a competitor (Fig. 2A). These assays yielded the optimal concentrations required for the subsequent FP validation assays, namely 10 nM for the pre-let-7d probe and 1 μM for Lin28b ZKD protein. The FP signal from the free probe was set as 0%, while the signal from the probe-ZKD complex in the absence of compounds was set as 100%. C1632 was used as a control Lin28 inhibitor (Fig. 2B). […] Since the docking pocket is almost identical between Lin28a and Lin28b homologs, we repeated the FP assays using Lin28a ZKD (Figure S2).
The fluorescein amidites (FAM)-tagged pre-Let-7d probe with the sequence of […] was purchased from Integrated DNA Technologies (IDT). The probe at the concentrations ranging from 1 nM to 50 uM was incubated with Lin28B (ZKD) or Lin28 (CSD+ZKD) to a final volume of 30 uL at room temperature for 20 min. To read the fluorescence, a TECAN 500 machine was used. Fluorescence polarization was calculated using the following equation:
P=(Fparrallel−Fperpendicular)/(Fparrallel+FperpendicularP)
where P is the fluorescence polarization reading, F parallel is the fluorescence intensity acquired from the parallel excitation plane, and F perpendicular is the fluorescence intensity acquired from the perpendicular direction of the excitation plane. The total fluorescence intensity is estimated using the following equation:
F=Fparallel+2FperpendicularF.
All the raw FP signal data from the TECAN 500 FP results were analyzed using Prism 8.0 (GraphPad, San Diego, CA, USA); normalized curves were plotted and IC50 values were estimated. All FP data were repeated three to five times.
Figure S1. Lin28b ZKD protein was incubated with the indicated compounds at the concentration of 0, 0.1, 0.2, 0.5, 1, 2, 5, 10, 20, 50, 100, and 200uM. FP signals were measured and plotted relative to that from vehicle.

activity in protein-based assays (Lin28b ZKD): performed less effectively than Ln15
Compound: O=c1[nH]c(Nc2ccc(F)cc2O)cs1 [Ln268]
effect on growth of VOA1066 cells (VOA1066 cells; Lin28a/Lin28b-positive): suppressed the growth
IC50 (VOA1066 cells; cells express both Lin28a and Lin28b at relatively high levels): 400 nM
effect on growth of ES-2 cells (ES-2 cells): no or minimal impacts
effect on Du145 spheroids (Du145 spheroids): no effect
effect on aggregation of smaller granules (<20 pixels) into larger SGs (>50 pixels) [1]: the most suppressive effect
cell cycle effect (FACS) (DuNE cells): arrested in G2/M in a dose-dependent manner
